{
  "source": "ChEMBL document CHEMBL2407074",
  "about": "“Three dimensional structure of a bacterial α-l-fucosidase with a 5-membered iminocyclitol inhibitor” (Bioorg Med Chem, 2013)",
  "key": {"[1]": {"experiment": "Inhibition of Bacteroides thetaiotaomicron recombinant alpha-L-fucosidase using 2-chloro-4-nitrophenyl-alpha-L-fucopyranoside as substrate after 5 mins by Michaelis Menten equation analysis"}, "[2]": {"experiment": "Inhibition of bovine kidney fucosidase", "set-up": "species or system Bos taurus"}},
  "data": [
    {"compound": "C[C@@H]1N[C@@H](c2nc3ccccc3[nH]2)[C@H](O)[C@@H]1O", "values": [
      {"measurement": "Ki", "setting": "[1]", "value": 2000, "unit": "nM"},
      {"measurement": "Ki", "setting": "[2]", "value": 80, "unit": "nM"}
    ]}
  ]
}
